Assay results as given in the NIST ThermoML archive (doi:10.1016/j.jct.2009.06.014).

Assays:
[1] = xn = mol fraction of the nth substance listed; conditions: 101 kPa, Liquid, Vibrating tube method
[2] = wn = mass fraction of the nth substance listed; conditions: 101 kPa, Liquid, Vibrating tube method

C1CCOC1 [tetrahydrofuran] + O
mass density [kg/m3], [1]
Conditions	293.15 K	298.15 K	303.15 K	308.15 K	313.15 K	318.15 K	323.15 K	328.15 K	333.15 K
x2 = 0	889.47	885.04	880.76	876.63	872.62	868.72	864.91	861.19	855.57
x2 = 0.307	909.02	904.73	900.6	896.6	892.72	888.93	885.23	881.59	878.02
x2 = 0.5048	927.43	923.37	919.45	915.67	912.03	908.48	905.02	901.65	898.3
x2 = 0.6429	944.68	940.84	937.15	933.61	930.19	926.87	923.65	920.5	917.43
x2 = 0.8027	968.99	965.85	962.77	959.82	956.98	954.25	951.59	949.01	946.48
x2 = 0.8555	979.39	976.67	974.08	971.62	969.26	966.98	964.79	962.66	960.59
x2 = 0.9025	987.96	986.24	984.38	982.6	980.91	979.36	977.79	976.28	974.8
x2 = 0.9402	992.74	991.5	990.32	989.18	988.11	987.04	986	985.02	983.98
x2 = 0.9719	995.94	995.45	994.98	994.52	994.07	993.63	993.19	992.76	992.33

CCCC[N+](CCCC)(CCCC)CCCC.[Br-] [tetrabutylammonium bromide] + O
mass density [kg/m3], [2]
Conditions	w1 = 0.0697	w1 = 0.0999	w1 = 0.15	w1 = 0.1996	w1 = 0.25	w1 = 0.2998	w1 = 0.3499	w1 = 0.4002	w1 = 0.4498	w1 = 0.5
293.15 K	1003.85	1006.63	1011.35	1017.09	1021.73	–	1030.98	1036.25	1041.41	1044.73
298.15 K	1002.43	1005.08	1009.55	1015.11	1019.26	1027.44	1027.91	1032.9	1037.83	1041.06
303.15 K	1000.8	1003.31	1007.54	1012.76	1016.66	1024.31	1024.77	1029.49	1034.23	1037.36
308.15 K	998.95	1001.34	1005.34	1010.24	1013.92	1021.1	1021.55	1026.04	1030.59	1033.62
313.15 K	996.91	999.19	1002.97	1007.59	1011.06	1017.82	1018.26	1022.53	1026.92	1029.85
318.15 K	994.7	996.86	1000.45	1004.8	1008.08	1014.47	1014.9	1018.98	1023.21	1026.05
323.15 K	992.32	994.38	997.78	1001.88	1005	1011.05	1011.47	1015.38	1019.46	1022.22
328.15 K	989.78	991.74	994.96	998.84	1001.81	1007.56	1007.97	1011.71	1015.67	1018.35
333.15 K	987.09	988.96	992	995.69	998.5	1004	1004.4	1008	1011.83	1014.45
